Data: patent US12589111B2, “Pt(IV) chemotherapeutic prodrug and controlled release thereof for treatment of tumors” (PEKING UNIVERSITY, priority 2020, dated 2026)
Read-outs that look alike come from different tables or passages of the source.

Tests used:
healthy mice = settings: for body weight of mice: dosed every third day
Procedure: In order to find the optimal dosage, we evaluated the effect of different doses of Oxaliplatin and prodrug on the health of healthy mice. In the same dosing way as in the treatment, the mice were dosed every third day, and then the body weight curve was recorded. […] Then ICP-MS was used to detect the concentration of the platinum drug in blood, tumor, liver and kidney respectively.
FIGS. 5 e-h show radiotherapy-driven release of Oxaliplatin for tumor treatment (n=6 mice per group). e, Tumor volume in individual mouse. f, Mean volume of tumors. The prodrug was injected intravenously for a total of 4 injections at a dose of 30 μmol/kg. One hour after intravenous injection, the tumor site in the irradiation group was irradiated with 4 Gy X-rays. Tumor volume in each group was measured every two days for 40 days. g, Survival curves of mice. According to the guidelines of Peking University Animal Ethics Committee, mice were sacrificed when the tumor volume reached 1500 mm^3. h, Body weight curves of mice.

[1] = system: HCT116, HT29, LoVo and Ls513 (human colorectal cancer cell lines); test: Cytotoxicity to Oxaliplatin-sensitive cell lines; type: cell-based

`O=C1[O][Pt]2([NH][C@@H]3CCCC[C@H]3[NH]2)[O]C1=O` [Oxaliplatin] was tested, and the “side effects from long-term survival and body weight curves” value (healthy mice; 3 μmol/kg) was “no apparent side effects”, the “body weight of mice” value (healthy mice; 3 μmol/kg) was “did not reduce the body weight” and the “body weight of mice” value (healthy mice; 30 μmol/kg) was “lost severe weight”. For the same compound, the “side effects (weight loss)” value (healthy mice; more than 10 μmol/kg) was “significant side effects”, the maximum tolerated dose (healthy mice; nude mice, intravenous injection) was “about 3 μmol/kg” and the IC50 [1] was “about submicromolar level”.
